Test results as given in US4833160A, “3-(3,5-di-tert-butyl-4-hydroxy benzylidene)-2-pyrrolidone and substituted derivatives thereof” (Eisai Co., Ltd., priority 1985, dated 1989).
Like-named read-outs stand apart in the source and are kept apart here.

Key:
[1] = tested on: carrageenan edema at foot-sole; assay: Effect of suppressing carrageenan edema at foot-sole; format: in vivo, Male Fisher rats; conditions: 10 mg/kg, one hour before carrageenan; volume measured three hours after carrageenan injection; groups of five animals
Protocol: Male Fisher rats aged five weeks were classified into groups each having five animals. Each test compound was suspended in a 5% aqueous solution of gum arabic and administered to each rat in a dose of […] body weight. After one hour, a 1% carrageenan solution was injected into the sole of the right hind foot of the animal to thereby induce inflammation. Three hours after the carrageenan injection, the volume of the sole of each hind foot of the animal was measured to calculate the volume-gain of the foot-sole to which carrageenan was injected. The obtained data was compared with those of the control groups, thus determining the suppression ratio of the test compound. The same test compounds as used in Pharmacological Example 1 were used.

adjuvant inflammation = assay: Effect of lowering local surface temperature at inflammation (adjuvant inflammation, butter bacillus, hind foot); format: in vivo, male Fisher rat; conditions: Rattus norvegicus, 6 h, read-out: Dose (mg/kg) required for lowering local temperature at inflammatory site by at least 2° C.
Protocol: 0.05 ml of a suspension of butter bacillus in liquid paraffin (10 mg/ml) was injected into the sole of the right hind foot of a male Fisher rat aged six weeks to thereby induce adjuvant inflammation. After three to five days, the surface temperature of the inflammatory foot was constantly higher by 8° to 10° C. than that of a normal foot. The test compounds as described hereinbelow and control compounds (i.e. indomethacin and pyroxycam) were each suspended in a 5% aqueous solution of gum arabic and orally administered to the rat in a dose of 5 ml/kg body weight. The local surface temperature of the inflammatory site was determined after two, four and six hours according to the method of H. Shirota et al. (cf. J. Pharmacol. Methods, 12, 35-43 (1984)). The dose required for lowering the surface temperature by at least 2° C. below that prior to the administration was calculated by averaging data of two animals, thus determining the anti-inflammatory titer of each test compound.

[2] = Effect of inducing gastric ulcer; format: in vivo, male Fisher rat; conditions: rat, oral, fasted 24 hours, after six hours, read-out: UD50 (50% ulcer inducing dose)
Protocol: A male Fisher rat aged seven weeks was kept fasting for 24 hours and then each test compound suspended in a 5% aqueous solution of gum arabic was orally administered thereto.

mice = assay: Acute Toxicity Test, mice; format: in vivo; conditions: oral, male mice, after fasting 17 to 24 hours
Protocol: (§1) LD 50 of the compound B, falling within the scope of the invention, was investigated in respect to acute toxicity, using rats and mice.
(§2) *Values were calculated according to BehrensKarber method. The oral
(§3) administration was conducted after a fasting treatment for 17 to 24 hours

[3] = Acute Toxicity Test, mice; format: in vivo; conditions: mouse, in vivo
Protocol: as §1, §2, §3

[4] = Acute Toxicity Test, rats; conditions: rat, in vivo
Protocol: as §1, §2, §3

[5] = oral, suspended in 5% gum arabic, temperature after two, four and six hours, averaging data of two animals

In the case of `CN1CCC(=Cc2cc(C(C)(C)C)c(O)c(C(C)(C)C)c2)C1=O` [Compound A, N-methyl-3-(3,5-di-tert-butyl-4-hydroxybenzylidene)-2-pyrrolidone], the Suppression ratio [1] is reported as 36.1 and the minimal effective dose (adjuvant inflammation; [5]) is reported as 1 mg/kg.
In the case of `CN1C(C(=O)Nc2ccccn2)=C(O)c2ccccc2S1(=O)=O` [Piroxicam, reference compound], the TD50 at 6 h ([2]; in vivo) is reported as 23.1 mg/kg and the minimal effective dose (adjuvant inflammation; [5]) is reported as 0.3 mg/kg.
In the case of `COc1ccc2c(c1)c(CC(=O)O)c(C)n2C(=O)c1ccc(Cl)cc1` [Indomethacin, indomethacin, reference compound], the Suppression ratio [1] is reported as 37.7, the TD50 at 6 h ([2]; in vivo) is reported as 7.8 mg/kg and the minimal effective dose (adjuvant inflammation; po) is reported as 0.3 mg/kg.
For `CON1CCC(=Cc2cc(C(C)(C)C)c(O)c(C(C)(C)C)c2)C1=O` [Compound B, N-methoxy-3-(3,5-di-tert-butyl-4-hydroxybenzylidene)-2-pyrrolidone], the Suppression ratio [1] was 36.4, the LD50 (mice) was 4000~2000 and the LD50 ([3]; ip, abdominal, female mice, confidence range 443.9~1549.3) was 805 mg/kg. The LD50 ([3]; ip, abdominal, male mice, confidence range 523~2270) was 1070 mg/kg, the LD50 ([3]; po, female mice, after fasting 17 to 24 hours) was 6870 mg/kg and the LD50 ([3]; sc, hypodermic, female mice) was greater than 4000 mg/kg. For the same molecule, the LD50 ([3]; sc, hypodermic, male mice) was greater than 4000 mg/kg, the TD50 at 6 h ([2]; in vivo) was 473 mg/kg and the minimal effective dose (adjuvant inflammation; po) was 0.3 mg/kg. For the same molecule, the LD50 ([4]; ip, abdominal, female rats, calculated according to Behrens-Karber method (*)) was 46.9 mg/kg, the LD50 ([4]; ip, abdominal, male rats, calculated according to Behrens-Karber method (*)) was 96.7 mg/kg and the LD50 ([4]; po, female rats, after fasting 17 to 24 hours, calculated according to Behrens-Karber method (*)) was 161 mg/kg. For the same molecule, the LD50 ([4]; po, male rats, after fasting 17 to 24 hours) was 354 mg/kg, the LD50 ([4]; sc, hypodermic, female rats, confidence range 124~476) was 291 mg/kg and the LD50 ([4]; sc, hypodermic, male rats, calculated according to Behrens-Karber method (*)) was 806 mg/kg.
Work on `CC(C)(C)c1cc(C=C2CCNC2=O)cc(C(C)(C)C)c1O` [Compound C, 3-(3,5-di-tert-butyl-4-hydroxybenzylidene)-2-pyrrolidone] yielded a Suppression ratio [1] of 38.5, a TD50 at 6 h ([2]; stomach) of 75.8 mg/kg and a minimal effective dose (adjuvant inflammation; [5]) of 0.3 mg/kg.
